Read-outs that look alike come from different tables or passages of the source.
What was measured:
Format in all cases: cell-based
[1] = tested on: HSC-2; assay: In vitro cytotoxicity assay (WST-8 cell viability, 5 days); details: Homo sapiens
Protocol: (§1) Cytotoxic potencies were assessed in flat-bottomed 96 well plates (Costar) using a water-soluble tetrazonium salt (WST-8) based cell viability assay (Dojindo, Molecular Technologies, Inc.) as previously described (Kovtun Y V, et al. Antibody-maytansinoid conjugates designed to bypass multidrug resistance. Cancer Res 2010; 70(6):2528-37). Briefly, human tumor cells (1,000-5,000 cells/well, depending on the cell line), in the appropriate culture medium were incubated, with conjugates in the presence or absence of an excess of the corresponding unconjugated antibodies, or with the metabolites for 5 days, at 37° C., 6% CO2. Cell viability was determined from background-corrected WST-8 absorbance.

[2] = tested on: Namalwa; assay: as above; details: Homo sapiens, read-out: In vitro cytotoxicity (IC50) Namalwa
Protocol: as §1

[3] = tested on: SUDHL-1; assay: as above; details: Homo sapiens, SU-DHL-1, read-out: In vitro cytotoxicity (IC50) SUDHL-1
Protocol: as §1

[4] = tested on: MDA-MB-468; assay: as above; details: Homo sapiens, MDA-MB-468, read-out: In vitro cytotoxicity (IC50) MDA-MB-468
Protocol: as §1

[5] = tested on: N-Luc (Namalwa cells stably transfected with the Luciferase gene); assay: as above; details: Homo sapiens
Protocol: as §1

[6] = tested on: KB; assay: cells; details: Homo sapiens, read-out: In vitro cytotoxicity (IC50) KB
Protocol: as §1

[7] = HSC-2, read-out: In vitro cytotoxicity (IC50) HSC-2, non-conjugated compounds, Table 7A
[8] = HSC-2, read-out: In vitro cytotoxicity (IC50) HSC-2
[9] = read-out: In vitro cytotoxicity (IC50) N-Luc, non-conjugated compounds, Table 7A
[10] = read-out: In vitro cytotoxicity (IC50) N-Luc, non-conjugated compounds, Table 7B
[11] = HSC-2, read-out: In vitro cytotoxicity (IC50) HSC-2, non-conjugated compounds, Table 7B

Row | SMILES | IC50 [1, 7] | IC50 [2] | IC50 [3] | IC50 [4] | IC50 [1, 8] | IC50 [5, 9] | IC50 [5, 10] | IC50 [1, 11] | IC50 [6]
1 | CC[C@@]1(O)C(=O)OCc2c1cc1n(c2=O)Cc2c-1nc1cc(F)c(C)cc1c2CCl [Compound 4a] | 4 nM | 3 nM |  |  |  |  |  |  | 
2 | CC[C@@]1(O)C(=O)OCc2c1cc1n(c2=O)Cc2c-1nc1cc(F)c(SC)cc1c2CCl [Compound 4b] | 3 nM | 1 nM |  |  |  |  |  |  | 
3 | CC[C@@]1(O)C(=O)OCc2c1cc1n(c2=O)Cc2c-1nc1cc(F)c(C)cc1c2CNC(=O)CO [Compound 7a] | 4 nM | 0.9 nM | 0.5 nM | 3 nM | 2 nM | 1 nM | 0.9 nM |  | 
4 | CC[C@@]1(O)C(=O)OCc2c1cc1n(c2=O)Cc2c-1nc1cc(F)c(SC)cc1c2CNC(=O)CO [Compound 7b] | 7 nM |  |  |  |  | 2 nM |  |  | 
5 | CC[C@@]1(O)C(=O)OCc2c1cc1n(c2=O)Cc2c-1nc1cc(F)c(C)cc1c2CN(Cc1ccccc1)C(=O)CO [Compound 7c] | 1 nM |  | 0.2 nM | 1 nM |  | 0.7 nM |  |  | 
6 | CC[C@@]1(O)C(=O)OCc2c1cc1n(c2=O)Cc2c-1nc1cc(F)c(C)cc1c2CCCCO [Compound 8a] | 0.6 nM | 0.2 nM |  | 2 nM |  | 0.9 nM | 0.2 nM | 0.5 nM | 0.6 nM
7 | CC[C@@]1(O)C(=O)OCc2c1cc1n(c2=O)Cc2c-1nc1cc(F)c(C)cc1c2CSCCO [Compound 8c] |  |  |  |  | 0.4 nM |  | 0.2 nM |  | 
8 | CC[C@@]1(O)C(=O)OCc2c1cc1n(c2=O)Cc2c-1nc1cc(F)c(C)cc1c2CSCCSC [Compound 8p] |  |  |  |  |  |  | 0.2 nM | 0.6 nM | 
9 | CC[C@@]1(O)C(=O)OCc2c1cc1n(c2=O)Cc2c-1nc1cc(F)c(C)cc1c2CCCCSC [Compound 33a] | 2 nM | 0.7 nM |  |  |  |  |  |  | 
10 | CC[C@@]1(O)C(=O)OCc2c1cc1n(c2=O)Cc2c-1nc1cc(F)c(C)cc1c2C[S+]([O-])CCO (some centres unmarked) [Compound 34a] | 9 nM |  |  | 7 nM |  |  |  |  | 7 nM
11 | CC[C@@]1(O)C(=O)OCc2c1cc1n(c2=O)Cc2c-1nc1cc(F)c(C)cc1c2CS(=O)(=O)CCO [Compound 34b] | 3 nM |  |  | 3 nM |  |  |  |  | 2 nM
12 | CC[C@@]1(O)C(=O)OCc2c1cc1n(c2=O)Cc2c-1nc1cc(F)c(C)cc1c2CNC(=O)CCCCCSC [Compound 35a] | 7 nM |  | 0.6 nM |  |  |  |  |  | 

— patent publication US20220133711A1, “CAMPTOTHECIN DERIVATIVES” (priority 2019, published 2022)
